Results published in PMC11513892, “Discovery of a Series of Macrocycles as Potent Inhibitors of Leishmania Infantum” (Journal of Medicinal Chemistry, 2024).
Like-named read-outs stand apart in the source and are kept apart here.

What was measured:
[1] = tested on: T. b. brucei; test: Growth of T. b. brucei trypomastigotes in axenic culture; format: cell-based; settings: Trypanosoma brucei
Source text: (§1) We previously reported the synthesis of a series of macrocycles, including 1 (Figure 2A), designed to investigate how structural features influence molecular chameleonicity.[15],[21] Originating from the structural similarities between 1 and hymenocardine, we investigated 1 in screens for P. falciparum and four kinetoplastid parasites: T. b. brucei, T. b. rhodesiense, T. cruzi, and L. infantum. In the screens, we also included compounds 2 and 3 (Figure 2A), which were obtained from an intermediate late in the synthetic route to 1. Since very few validated protein targets relevant to clearance of parasites are known, phenotypic assays were used to investigate the antiparasitic activity for all five parasites. For malaria, the P. falciparum blood stage 3D7 strain was used to test the three compounds. For the two Trypanosoma brucei species, the reduction in trypomastigote growth in culture medium was determined after the addition of 1–3. For T. cruzi, the intracellular parasite growth in infected human fibroblasts (MRC-5 cell line) was assessed in the presence and absence of the three inhibitors. Similarly, the growth of L. infantum was assessed in infected primary mouse macrophages (PMMs) in the presence and absence of the inhibitors. […] The assays for T. cruzi and L. infantum are complex, i.e., they determine the degree of inhibition of parasitic replication in a mammalian cell line; this complexity may lead to a high variability for some compounds.
(§2) The growth of the P. falciparum blood stage 3D7 strain,[53] the two T. brucei species in axenic cultures,[54]T. cruzi in infected human fibroblasts (MRC-5 cell line),[55] and of L. infantum in infected primary mouse macrophages (PMMs)[56] was determined as previously reported in the presence and absence of inhibitors 1–12.

[2] = tested on: T. b. rhodesiense; test: Growth of T. b. rhodesiense trypomastigotes in axenic culture; format: cell-based, Trypanosoma brucei rhodesiense; settings: Trypanosoma brucei
Source text: as §1, §2

[3] = tested on: T. cruzi; test: Intracellular growth of T. cruzi in infected human fibroblasts (MRC-5 cell line); format: cell-based; settings: Trypanosoma cruzi
Source text: as §1, §2

[4] = tested on: L. infantum; test: Growth of L. infantum in infected primary mouse macrophages (PMMs), phenotypic assay; format: cell-based, Leishmania infantum; settings: for EC50: Leishmania infantum, Macrophage; for loss in potency compared to 3, L. infantum: relative to compound 3
Source text: as §1
(§3) The potency of macrocycles 1–12 to inhibit the growth of L. infantum was determined in a phenotypic assay in which the parasite was grown in primary peritoneal mouse macrophages (PMMs). To understand whether the SAR for inhibition of parasitic growth is impacted by low cell permeability, the permeability of compounds 1–12 was determined separately. Madin-Darby canine kidney (MDCK) cells transfected with the human MDR1 (multidrug resistance 1) gene (MDCK-MDR1 cells) were used to determine permeabilities in the apical to basolateral direction (Papp AB) as well as efflux ratios (ERs). […] Lipophilicity (Log D at pH 7.4), aqueous kinetic solubility and mouse liver microsomal metabolism were also determined for 1–12, and are discussed separately (cf. physiochemical properties and ADMET, below).
as §2

[5] = tested on: MRC-5 cells; test: Host cell cytotoxicity in MRC-5 cells; format: cell-based, human; settings: CSV supplement; decimal comma
[6] = tested on: primary mouse macrophages (PMMs); test: Host cell cytotoxicity in primary mouse macrophages (PMM); format: cell-based; settings: CSV supplement; decimal comma
[7] = tested on: MDR1; test: in vitro; format: in vitro ADME, canine; settings: dog; for Papp B→A: MDCK-MDR1, pH 7.4; for Papp A→B: MDCK-MDR1, pH 7.4, Papp AB
Description: as §3
(§4) The kinetic solubility in phosphate buffered saline at pH 7.4, chromatographic Log D at pH 7.4, cell permeability across a MDCK-MDR1 cell monolayer at pH 7.4, and the clearance in mouse liver microsomes of 1–12 was determined at TCG Lifesciences.

[8] = Kinetic solubility in phosphate buffered saline at pH 7.4; format: physicochemical
Description: as §4

[9] = Chromatographic Log D at pH 7.4; format: physicochemical; settings: 1-octanol/PBS pH 7.4, determined by chromatography, mean of two measurements
Description: as §4

[10] = Clearance in mouse liver microsomes; format: in vitro ADME; settings: for microsomal CLint: mouse, liver microsomes
Description: as §4

[11] = Clearance in human microsomes; format: in vitro ADME; settings: CSV supplement
Source text: Supplement jm4c01370_si_002.csv, table | column: CLint in vitro Human Microsomes µL/min/mg; t(1/2) min

[12] = CSV supplement, decimal comma, read-out: EC50 T.b. brucei Squib 427
[13] = Table S1, mean (SD), 2 to 14 measurements, unit not given in Table S1, read-out: In vitro potency, T. b. brucei
[14] = RHODESIENSE / STIB900, CSV supplement, decimal comma, read-out: EC50 T.b. rhodesiense STIB 900
[15] = MRC5, Table S1, mean (SD), 2 to 14 measurements, unit not given in Table S1, read-out: In vitro potency, T. cruzi
[16] = TULAHUEN, MRC5, read-out: EC50 T. cruzi Tulahuen C4 (LacZ)
[17] = Table 1, mean (standard deviation, number of measurements), read-out: EC50 (μM), inhibition of the growth of L. infantum
[18] = phosphate buffered saline, pH 7.4, CSV supplement, read-out: Kinetic solubility
[19] = phosphate buffered saline, pH 7.4, phosphate buffered saline pH 7.4, assay range 2.5–200 μM, read-out: solubility (kinetic)
[20] = CSV supplement, read-out: CLint in vitro Mouse Microsomes
[21] = incubation with mouse liver microsomes, read-out: CLint
[22] = CSV supplement, decimal comma, read-out: EC50 L. infantum MHOM/MA(BE)/67
[23] = MDCK-MDR1, pH 7.4, ER, efflux ratio (BA/AB)
[24] = MDCK-MDR1, pH 7.4, MDCK MDR1 - pH 7.4 Efflux Ratio
[25] = RHODESIENSE, Table S1, mean (SD), 2 to 14 measurements, unit not given in Table S1, read-out: In vitro potency, T. b. rhodesiense

Row | Structure (SMILES) | EC50 [1, 12] | EC50 [1, 13] | EC50 [2, 14] | EC50 [3, 15] | EC50 [3, 16] | EC50 [4, 17] | MRC-5 cells Human Lung Fibroblast Cells (cytotoxicity) [5] | PMM Primary Mouse Macrophages (inf-LMPH) (cytotoxicity) [6] | Papp B→A [7] | solubility kinetic [8, 18] | solubility kinetic [8, 19] | chromatographic logD [9] | t(1/2), Mouse Microsomes ([10]; CSV supplement) | microsomal CLint [10, 20] | microsomal CLint [10, 21] | EC50 [4, 22] | loss in potency compared to 3, L. infantum [4] | efflux ratio [7, 23] | efflux ratio [7, 24] | Papp A→B [7] | also measured
1 | COc1ccc(C[C@H](NC(=O)OC(C)(C)C)C(=O)N[C@@H](Cc2ccccc2)C(=O)NCC(=O)c2cccc(NC(=O)c3ccccn3)c2)cc1 [Compound 4, tert-Butyl ((S)-3-(4-Methoxyphenyl)-1-oxo-1-(((S)-1-oxo-1-((2-oxo-2-(3-(picolinamido)phenyl)ethyl)amino)-3-phenylpropan-2-yl)amino)propan-2-yl)carbamate] | 32.7 µM | 33 µM | 6.1 µM | 64 µM | > 64 µM | 38 µM | >64 µM | >64 µM | 2.4 ×10⁻⁶ cm/s | 4.9 µg/mL | 7.3 µM | 4.7 | <3 min | > 578 µL/min/mg | > 580 µL/min/mg |  |  |  |  |  | activity in the L. infantum phenotypic screen (in words) ([4]; Table 1): inactive; t(1/2), Human Microsomes [11]: <3 min; microsomal CLint ([11]; human, microsomes, read-out: CLint in vitro Human Microsomes): > 578 µL/min/mg
2 | C[C@@H]1NC(=O)[C@@H](NC(=O)OC(C)(C)C)Cc2ccc(cc2)Oc2ccc(cc2NC(=O)c2ccccn2)C(=O)CNC1=O [Compound 7, tert-Butyl ((8S,11S)-8-Methyl-4,7,10-trioxo-3^2-(picolinamido)-2-oxa-6,9-diaza-1,3(1,4)-dibenzenacyclododecaphane-11-yl)carbamate] | 49 µM |  | 9.7 µM | 36 µM | 35.5 µM | 16 µM | >64 µM | >64 µM | 39.3 ×10⁻⁶ cm/s | 73.7 µg/mL | > 100 µM | 3.5 | 5,8 min | 297 µL/min/mg | 300 µL/min/mg | 15.5 µM | ~10 fold | 28 | 28.3 | 1.4 ×10⁻⁶ cm/s | solubility kinetic ([8]; phosphate buffered saline pH 7.4, assay range 2.5–200 μM, read-out: solubility (kinetic)): 126 µM
3 | CC(C)(C)OC(=O)N[C@H]1Cc2ccc(cc2)Oc2ccc(cc2NC(=O)c2ccccn2)C(=O)CNC(=O)[C@@H](Cc2ccccc2)NC1=O [Compound 8, tert-Butyl ((8R,11S)-8-Benzyl-4,7,10-trioxo-3^2-(picolinamido)-2-oxa-6,9-diaza-1,3(1,4)-dibenzenacyclododecaphane-11-yl)carbamate] | 8.1 µM |  | 6.4 µM |  | 6.1 µM | 8.2 µM | >64 µM | >64 µM | 22.3 ×10⁻⁶ cm/s | 1.9 µg/mL | 2.9 µM | 4.8 | <3 min | > 578 µL/min/mg | > 580 µL/min/mg |  |  | 7.6 | 7.6 | 2.9 ×10⁻⁶ cm/s | 
4 | CC(=O)N[C@H]1Cc2ccc(cc2)Oc2ccc(cc2NC(=O)c2ccccn2)C(=O)CNC(=O)[C@H](Cc2ccccc2)NC1=O [Compound 11] | 26.8 µM | 36 µM | 23.6 µM |  | 33 µM | 38 µM | >64 µM | >64 µM | 17.8 ×10⁻⁶ cm/s | 58.3 µg/mL | 96 µM | 3.2 | 12,9 min | 134 µL/min/mg | 130 µL/min/mg | 37.5 µM | > 20 fold |  |  | 1.1 ×10⁻⁶ cm/s | EC50 [2, 25]: 24 µM; efflux ratio ([7]; MDCK-MDR1, pH 7.4, CSV supplement, pH 7.4, read-out: MDCK MDR1 - pH 7.4 Efflux Ratio): 15.7; efflux ratio ([7]; MDCK-MDR1, pH 7.4, MDCK-MDR1 cell monolayer, read-out: ER, efflux ratio (BA/AB)): 16
5 | CC(C)(C)C(=O)N[C@H]1Cc2ccc(cc2)Oc2ccc(cc2NC(=O)c2ccccn2)C(=O)CNC(=O)[C@H](Cc2ccccc2)NC1=O [Compound 12, tert-Butyl ((8S,11S)-8-Benzyl-4,7,10-trioxo-11-pivalamido-2-oxa-6,9-diaza-1,3(1,4)-dibenzenacyclododecaphane-3^2-yl)picolinamide] | 30.4 µM | 30 µM | 21.3 µM | 64 µM | > 64 µM | 7.1 µM | >64 µM | >64 µM | 31.8 ×10⁻⁶ cm/s | 10.3 µg/mL | 16 µM | 4.4 | <3 min | > 578 µL/min/mg | > 580 µL/min/mg |  |  | 21 | 20.8 | 1.5 ×10⁻⁶ cm/s | EC50 [2, 25]: 21 µM
6 | CCCCCCCCCCCCCCCCOP(=O)([O-])OCC[N+](C)(C)C [Miltefosine, miltefosine, reference compound] |  |  |  |  |  | 6.1 µM |  |  |  |  |  |  |  |  |  |  |  |  |  |  | 
